Assay: On-resin ring-closing metathesis (C=C) of bis-alkenyl beta-(1,6)-hexaglucosides, Grubbs catalyst 20 mol% per cycle, Ar bubbling. Method B (8a-8d): Grubbs II, MW 60 C, 40 min per cycle, 6 cycles for 8a and 3 for 8b-8d. Method A (8e-8g): Grubbs I, 25 C, 60 min per cycle, 3 cycles
Settings: the molecule shown is the open-chain precursor, 16 steps

C=CCO[C@@H]1[C@@H](OC(=O)c2ccccc2)[C@H](OC[C@H]2O[C@@H](OC[C@H]3O[C@@H](OC[C@H]4O[C@@H](OC[C@H]5O[C@@H](OC[C@H]6O[C@@H](OCCCCCN(Cc7ccc(OC)cc7[N+](=O)[O-])C(=O)OCc7ccccc7)[C@H](OC(=O)c7ccccc7)[C@@H](OC(=O)c7ccccc7)[C@@H]6OCc6ccccc6)[C@H](OC(=O)c6ccccc6)[C@@H](OCc6ccccc6)[C@@H]5OCC=C)[C@H](OC(=O)c5ccccc5)[C@@H](OC(=O)c5ccccc5)[C@@H]4OCc4ccccc4)[C@H](OC(=O)c4ccccc4)[C@@H](OC(=O)c4ccccc4)[C@@H]3OCc3ccccc3)[C@H](OC(=O)c3ccccc3)[C@@H](OC(=O)c3ccccc3)[C@@H]2OCc2ccccc2)O[C@H](CO)[C@H]1OCc1ccccc1 [8a (from 5a, -(CH2)4-)]
ring closure, overall yield (28-membered ring, 1,2-dichloroethane, 4.0 h): 12%

C=CCCO[C@@H]1[C@@H](OC(=O)c2ccccc2)[C@H](OC[C@H]2O[C@@H](OC[C@H]3O[C@@H](OC[C@H]4O[C@@H](OC[C@H]5O[C@@H](OC[C@H]6O[C@@H](OCCCCCN(Cc7ccc(OC)cc7[N+](=O)[O-])C(=O)OCc7ccccc7)[C@H](OC(=O)c7ccccc7)[C@@H](OC(=O)c7ccccc7)[C@@H]6OCc6ccccc6)[C@H](OC(=O)c6ccccc6)[C@@H](OCc6ccccc6)[C@@H]5OCC=C)[C@H](OC(=O)c5ccccc5)[C@@H](OC(=O)c5ccccc5)[C@@H]4OCc4ccccc4)[C@H](OC(=O)c4ccccc4)[C@@H](OC(=O)c4ccccc4)[C@@H]3OCc3ccccc3)[C@H](OC(=O)c3ccccc3)[C@@H](OC(=O)c3ccccc3)[C@@H]2OCc2ccccc2)O[C@H](CO)[C@H]1OCc1ccccc1 [8b (from 5b, -(CH2)5-)]
ring closure, overall yield (29-membered ring, 1,2-dichloroethane, 2.0 h): 10%

C=CCCCO[C@@H]1[C@@H](OC(=O)c2ccccc2)[C@H](OC[C@H]2O[C@@H](OC[C@H]3O[C@@H](OC[C@H]4O[C@@H](OC[C@H]5O[C@@H](OC[C@H]6O[C@@H](OCCCCCN(Cc7ccc(OC)cc7[N+](=O)[O-])C(=O)OCc7ccccc7)[C@H](OC(=O)c7ccccc7)[C@@H](OC(=O)c7ccccc7)[C@@H]6OCc6ccccc6)[C@H](OC(=O)c6ccccc6)[C@@H](OCc6ccccc6)[C@@H]5OCC=C)[C@H](OC(=O)c5ccccc5)[C@@H](OC(=O)c5ccccc5)[C@@H]4OCc4ccccc4)[C@H](OC(=O)c4ccccc4)[C@@H](OC(=O)c4ccccc4)[C@@H]3OCc3ccccc3)[C@H](OC(=O)c3ccccc3)[C@@H](OC(=O)c3ccccc3)[C@@H]2OCc2ccccc2)O[C@H](CO)[C@H]1OCc1ccccc1 [8c (from 5c, -(CH2)6-)]
ring closure, overall yield (30-membered ring, 1,2-dichloroethane, 2.0 h): 15%

C=CCCCCO[C@@H]1[C@@H](OC(=O)c2ccccc2)[C@H](OC[C@H]2O[C@@H](OC[C@H]3O[C@@H](OC[C@H]4O[C@@H](OC[C@H]5O[C@@H](OC[C@H]6O[C@@H](OCCCCCN(Cc7ccc(OC)cc7[N+](=O)[O-])C(=O)OCc7ccccc7)[C@H](OC(=O)c7ccccc7)[C@@H](OC(=O)c7ccccc7)[C@@H]6OCc6ccccc6)[C@H](OC(=O)c6ccccc6)[C@@H](OCc6ccccc6)[C@@H]5OCC=C)[C@H](OC(=O)c5ccccc5)[C@@H](OC(=O)c5ccccc5)[C@@H]4OCc4ccccc4)[C@H](OC(=O)c4ccccc4)[C@@H](OC(=O)c4ccccc4)[C@@H]3OCc3ccccc3)[C@H](OC(=O)c3ccccc3)[C@@H](OC(=O)c3ccccc3)[C@@H]2OCc2ccccc2)O[C@H](CO)[C@H]1OCc1ccccc1 [8d (from 5d, -(CH2)7-)]
ring closure, overall yield (31-membered ring, 1,2-dichloroethane, 2.0 h): 13%

C=CCCCCO[C@H]1[C@H](OCc2ccccc2)[C@@H](OC(=O)c2ccccc2)[C@H](OC[C@H]2O[C@@H](OCCCCCN(Cc3ccc(OC)cc3[N+](=O)[O-])C(=O)OCc3ccccc3)[C@H](OC(=O)c3ccccc3)[C@@H](OC(=O)c3ccccc3)[C@@H]2OCc2ccccc2)O[C@@H]1CO[C@@H]1O[C@H](CO[C@@H]2O[C@H](CO[C@@H]3O[C@H](CO[C@@H]4O[C@H](CO)[C@@H](OCc5ccccc5)[C@H](OCCC=C)[C@H]4OC(=O)c4ccccc4)[C@@H](OCc4ccccc4)[C@H](OC(=O)c4ccccc4)[C@H]3OC(=O)c3ccccc3)[C@@H](OCc3ccccc3)[C@H](OC(=O)c3ccccc3)[C@H]2OC(=O)c2ccccc2)[C@@H](OCc2ccccc2)[C@H](OC(=O)c2ccccc2)[C@H]1OC(=O)c1ccccc1 [8e (from 5e, -(CH2)8-)]
ring closure, overall yield (32-membered ring, 1,2-dichloroethane, 3.0 h): 15%

C=CCCCCO[C@H]1[C@H](OCc2ccccc2)[C@@H](OC(=O)c2ccccc2)[C@H](OC[C@H]2O[C@@H](OCCCCCN(Cc3ccc(OC)cc3[N+](=O)[O-])C(=O)OCc3ccccc3)[C@H](OC(=O)c3ccccc3)[C@@H](OC(=O)c3ccccc3)[C@@H]2OCc2ccccc2)O[C@@H]1CO[C@@H]1O[C@H](CO[C@@H]2O[C@H](CO[C@@H]3O[C@H](CO[C@@H]4O[C@H](CO)[C@@H](OCc5ccccc5)[C@H](OCCCC=C)[C@H]4OC(=O)c4ccccc4)[C@@H](OCc4ccccc4)[C@H](OC(=O)c4ccccc4)[C@H]3OC(=O)c3ccccc3)[C@@H](OCc3ccccc3)[C@H](OC(=O)c3ccccc3)[C@H]2OC(=O)c2ccccc2)[C@@H](OCc2ccccc2)[C@H](OC(=O)c2ccccc2)[C@H]1OC(=O)c1ccccc1 [8f (from 5f, -(CH2)9-)]
ring closure, overall yield (33-membered ring, 1,2-dichloroethane, 3.0 h): 14%

C=CCCCCO[C@@H]1[C@@H](OC(=O)c2ccccc2)[C@H](OC[C@H]2O[C@@H](OC[C@H]3O[C@@H](OC[C@H]4O[C@@H](OC[C@H]5O[C@@H](OC[C@H]6O[C@@H](OCCCCCN(Cc7ccc(OC)cc7[N+](=O)[O-])C(=O)OCc7ccccc7)[C@H](OC(=O)c7ccccc7)[C@@H](OC(=O)c7ccccc7)[C@@H]6OCc6ccccc6)[C@H](OC(=O)c6ccccc6)[C@@H](OCc6ccccc6)[C@@H]5OCCCCC=C)[C@H](OC(=O)c5ccccc5)[C@@H](OC(=O)c5ccccc5)[C@@H]4OCc4ccccc4)[C@H](OC(=O)c4ccccc4)[C@@H](OC(=O)c4ccccc4)[C@@H]3OCc3ccccc3)[C@H](OC(=O)c3ccccc3)[C@@H](OC(=O)c3ccccc3)[C@@H]2OCc2ccccc2)O[C@H](CO)[C@H]1OCc1ccccc1 [8g (from 5g, -(CH2)10-)]
ring closure, overall yield (34-membered ring, 1,2-dichloroethane, 3.0 h): 17%

— article PMC9562281
